Consider one substance from US20080318869A1, “Method to Promote Wound Healing” (IMMUNEREGEN BIOSCIENCES, INC., priority 2004, published 2008).

This assay has as its system tail wounds of irradiated mice. Kind of assay: Healing of tail bite wounds in irradiated mice. It counts as in vivo. The following applies: male mice with tail bite wounds; 7, 8, or 9 Gy 60 Cobalt gamma radiation single acute dose; direct muscle injection 0.5 ml bolus at 2 micromolar; 7 weeks post-radiation exposure; saline controls had unhealed tail wounds. The procedure:
The male mice fought while confined with four mice/bin. They sustained extensive tail wounds from biting. We then exposed the mice to either 7, 8, or 9 Gy 60 Cobalt gamma radiation in a single acute dose. [Sar^9,Met(02)^11]-substance P was administered by direct muscle injection in a 0.5 ml bolus at 2 micromolar concentration. Control animals received injections of normal saline.

For [Sar^9,Met(O2)^11]-substance P, the unhealed tail wounds entry is listed as “did not have any unhealed tail wounds”.
